Source: patent US10131652B2, “Pyrimidinyloxy benzene derivatives as herbicides” (E. I. DU PONT DE NEMOURS AND COMPANY, priority 2014, dated 2018)

What was measured:
Assay type in all cases: in vivo
rice (Oryza sativa) = test: Test C flooded paddy test plant response; details: Flood, 250 g ai/ha; scale of 0 to 100 where 0 is no effect and 100 is complete control; 13 to 15 days
In short: (§1)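 Scored visually on a 0–100 scale (100 = complete control) against untreated plants 13 to 15 days after treatment in the greenhouse. Compounds went into paddy water of pots flooded to 3 cm, holding 2-leaf-stage plants.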

[1] = test system: ducksalad (Heteranthera limosa); test: Test C flooded paddy test plant response; details: Flood, 250 g ai/ha; scale of 0 to 100 where 0 is no effect and 100 is complete control; 13 to 15 days
In short: as §1

[2] = test system: small-flower umbrella sedge (Cyperus difformis); test: Test C flooded paddy test plant response; details: Flood, 250 g ai/ha; scale of 0 to 100 where 0 is no effect and 100 is complete control; 13 to 15 days
In short: as §1

[3] = test system: barnyardgrass (Echinochloa crus-galli); test: Test C flooded paddy test plant response; details: Flood, 250 g ai/ha; scale of 0 to 100 where 0 is no effect and 100 is complete control; 13 to 15 days
In short: as §1

[4] = test system: galium (catchweed bedstraw, Galium aparine); test: Test B postemergence plant response
In short: (§2)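 Values are visual control ratings (0 to 100) recorded approximately 10 days after postemergence application to greenhouse-grown plants of 2 to 10 cm, one- to two-leaf stage, each judged against untreated controls.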

[5] = test system: blackgrass (Alopecurus myosuroides); test: Test B postemergence plant response
In short: as §2

[6] = test system: ragweed (common ragweed, Ambrosia elatior); test: Test B pre-/postemergence plant response
In short: (§3)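 Evaluation is visual, about 10 days after application, rating injury from 0 (none) to 100 (complete control) relative to untreated controls. Application was a preemergence soil spray on seeded pots or a postemergence spray on one- to two-leaf plants.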

[7] = test system: barnyardgrass (Echinochloa crus-galli); test: Test B pre-/postemergence plant response
In short: as §3

[8] = test system: pigweed (Amaranthus retroflexus); test: Test B pre-/postemergence plant response
In short: as §3

corn (Zea mays) = test: Test B pre-/postemergence plant response
In short: as §3

[9] = test system: wheat (Triticum aestivum); test: Test B pre-/postemergence plant response
In short: as §3

[10] = test system: Italian ryegrass (Lolium multiflorum); test: Test B pre-/postemergence plant response
In short: as §3

kochia (Kochia scoparia) = test: Test B pre-/postemergence plant response
In short: as §3

[11] = test system: giant foxtail (Setaria faberii); test: Test B pre-/postemergence plant response
In short: as §3

[12] = Postemergence, 1000 g ai/ha, 0 to 100 scale (0 no effect, 100 complete control)
[13] = Preemergence, 1000 g ai/ha, 0 to 100 scale (0 no effect, 100 complete control)
[14] = 125 g ai/ha, postemergence, 0 to 100 scale, 0 no effect, 100 complete control
[15] = Postemergence, 31 g ai/ha, 0 to 100 scale (0 no effect, 100 complete control)
[16] = 31 g ai/ha, Preemergence, 0 to 100 scale where 0 is no effect and 100 is complete control
[17] = Preemergence, 125 g ai/ha, 0 to 100 scale (0 no effect, 100 complete control)

Fc1cnc(Oc2ccccc2-c2cc(Cl)sn2)nc1 [Compound 193]
20: Plant response rating, Wheat [9, 12]
80: Plant response rating, Ragweed [6, 13]
90: Plant response rating, Blackgrass [5, 12] | Plant response rating, Ragweed [6, 12] | Plant response rating, Barnyardgrass [7, 12] | Plant response rating, Foxtail, Giant [11, 12]
30: Plant response rating, Ryegrass, Italian [10, 12]
10: Plant response rating, Corn (corn (Zea mays); [12])
65: Ducksalad plant response rating [1]
0: Rice plant response rating (rice (Oryza sativa)) | Sedge, Umbrella plant response rating [2] | Barnyardgrass plant response rating [3] | Plant response rating, Ryegrass, Italian [10, 13]
100: Plant response rating, Galium [4, 12] | Plant response rating, Barnyardgrass [7, 13] | Plant response rating, Pigweed [8, 12] | Plant response rating, Pigweed [8, 13] | Plant response rating, Kochia (kochia (Kochia scoparia); [12]) | Plant response rating, Kochia (kochia (Kochia scoparia); [13]) | Plant response rating, Foxtail, Giant [11, 13]

Cc1cnc(Oc2ccccc2-c2cc(Cl)sn2)nc1 [Compound 194]
20: Plant response rating, Wheat [9, 12]
80: Ducksalad plant response rating [1] | Plant response rating, Ragweed [6, 12]
0: Rice plant response rating (rice (Oryza sativa)) | Sedge, Umbrella plant response rating [2] | Barnyardgrass plant response rating [3]
50: Plant response rating, Ryegrass, Italian [10, 12] | Plant response rating, Ryegrass, Italian [10, 13]
30: Plant response rating, Ragweed [6, 13]
90: Plant response rating, Blackgrass [5, 12] | Plant response rating, Pigweed [8, 12] | Plant response rating, Foxtail, Giant [11, 12]
100: Plant response rating, Galium [4, 12] | Plant response rating, Barnyardgrass [7, 12] | Plant response rating, Barnyardgrass [7, 13] | Plant response rating, Pigweed [8, 13] | Plant response rating, Kochia (kochia (Kochia scoparia); [12]) | Plant response rating, Kochia (kochia (Kochia scoparia); [13]) | Plant response rating, Foxtail, Giant [11, 13]
60: Plant response rating, Corn (corn (Zea mays); [12])

C=C(C)c1cc(-c2ccccc2Oc2ncc(Cl)cn2)on1 [Compound 196]
70: Sedge, Umbrella plant response rating [2]
30: Barnyardgrass plant response rating [3]
100: Plant response rating, Galium [4, 14]
40: Plant response rating, Kochia (kochia (Kochia scoparia); [14])
20: Plant response rating, Ragweed [6, 14] | Plant response rating, Pigweed [8, 15] | Foxtail, Giant plant response rating [11, 17]
55: Ducksalad plant response rating [1]
10: Plant response rating, Ragweed [6, 15] | Plant response rating, Barnyardgrass [7, 14] | Barnyardgrass plant response rating [7, 17] | Pigweed plant response rating [8, 17] | Plant response rating, Foxtail, Giant [11, 14]
60: Plant response rating, Galium [4, 15] | Plant response rating, Pigweed [8, 14]
0: Rice plant response rating (rice (Oryza sativa)) | Plant response rating, Blackgrass [5, 14] | Plant response rating, Blackgrass [5, 15] | Plant response rating, Ragweed [6, 16] | Ragweed plant response rating [6, 17] | Plant response rating, Barnyardgrass [7, 16] | Plant response rating, Barnyardgrass [7, 15] | Plant response rating, Pigweed [8, 16] | Plant response rating, Corn (corn (Zea mays); [14]) | Plant response rating, Corn (corn (Zea mays); [15]) | Plant response rating, Wheat [9, 14] | Plant response rating, Wheat [9, 15] | Plant response rating, Ryegrass, Italian [10, 16] | Plant response rating, Ryegrass, Italian [10, 14] | Plant response rating, Ryegrass, Italian [10, 15] | Ryegrass, Italian plant response rating [10, 17] | Plant response rating, Kochia (kochia (Kochia scoparia); [16]) | Plant response rating, Kochia (kochia (Kochia scoparia); [15]) | Kochia plant response rating (kochia (Kochia scoparia); [17]) | Plant response rating, Foxtail, Giant [11, 16] | Plant response rating, Foxtail, Giant [11, 15]

C=C(C)c1cc(-c2ccccc2Oc2ncc(Br)cn2)on1 [Compound 197]
20: Barnyardgrass plant response rating [3]
10: Plant response rating, Galium [4, 15] | Plant response rating, Pigweed [8, 14] | Plant response rating, Pigweed [8, 15]
50: Plant response rating, Galium [4, 14]
0: Rice plant response rating (rice (Oryza sativa)) | Ducksalad plant response rating [1] | Sedge, Umbrella plant response rating [2] | Plant response rating, Blackgrass [5, 14] | Plant response rating, Blackgrass [5, 15] | Plant response rating, Ragweed [6, 16] | Plant response rating, Ragweed [6, 14] | Plant response rating, Ragweed [6, 15] | Ragweed plant response rating [6, 17] | Plant response rating, Barnyardgrass [7, 16] | Plant response rating, Barnyardgrass [7, 14] | Plant response rating, Barnyardgrass [7, 15] | Barnyardgrass plant response rating [7, 17] | Plant response rating, Pigweed [8, 16] | Pigweed plant response rating [8, 17] | Plant response rating, Corn (corn (Zea mays); [14]) | Plant response rating, Corn (corn (Zea mays); [15]) | Plant response rating, Wheat [9, 14] | Plant response rating, Wheat [9, 15] | Plant response rating, Ryegrass, Italian [10, 16] | Plant response rating, Ryegrass, Italian [10, 14] | Plant response rating, Ryegrass, Italian [10, 15] | Ryegrass, Italian plant response rating [10, 17] | Plant response rating, Kochia (kochia (Kochia scoparia); [16]) | Plant response rating, Kochia (kochia (Kochia scoparia); [14]) | Plant response rating, Kochia (kochia (Kochia scoparia); [15]) | Kochia plant response rating (kochia (Kochia scoparia); [17]) | Plant response rating, Foxtail, Giant [11, 16] | Plant response rating, Foxtail, Giant [11, 14] | Plant response rating, Foxtail, Giant [11, 15] | Foxtail, Giant plant response rating [11, 17]
